Molecules are shown by their SMILES. Like-named read-outs stand apart in the source and are kept apart here.

Data set [1] deals with F1+2, TAT, D-dimer. The note with it: atrial fibrillation patients; anticoagulant therapy (N. Vene et al., Thromb Haemost 2003); cited from earlier work.
In a further data set the test system is D-dimer. Briefly: Dose comparison study in non-valvular atrial fibrillation patients: biomarker D-dimer. The data set is classed as in vivo, human. The conditions noted are these: 28 days after administration. Here is the method:
(§1) Moreover, secondary evaluations were performed for efficacy by the comparison of the incidence of thromboembolic events, pharmacodynamic indexes, and biomarkers, and for safety by the comparison of the incidences of adverse events and adverse reactions. […] In the group to which warfarin was administered, 0.5-mg and 1-mg warfarin tablets were used and orally administered once a day for 12 weeks as a rule at a dose that allowed PT-INR to be controlled to between 2.0 and 3.0 inclusive (for 70-year-old or older participants, between 1.6 and 2.6 inclusive).
(§2) The clinical trial was carried out by, after obtaining the consent of test subjects, conducting head diagnostic imaging before registration to confirm no bleeding observation, and conducting head diagnostic imaging (CT or MRI), transthoracic echocardiography, lead electrocardiography, blood pressure examination, pulse rate examination, and hematological/biochemical tests.
(§3) The biomarkers F1+2 and TAT are markers of thrombin formation, while D-dimer is a marker of secondary fibrinolysis.

The test system of data set [2] is bleeding events. How it is done:
as §1, §2
In the secondary analysis, the hypothesis (comparison) shown below was studied on the incidence of bleeding events using the one-sided Cochran-Armitage test at the 0.025 level of significance.
This clinical trial was carried out in conformity to the standards specified by Article 14 Paragraph 3 and Article 80-2 of the Pharmaceutical Affairs Law and MHW Ordinance No. 28 “Standards for the Implementation of Clinical Trials on Pharmaceutical Products” (Mar. 27, 1997; hereinafter, referred to as the GCP ordinance). The implementation of this clinical trial conformed to the ethical research guidelines of the Declaration of Helsinki and secured the maximal human rights, welfare, and safety of the test subjects. [Protocol No. of this clinical trial: DU-176b-C-J225_Ver.03.05.000].

The subject of data set [3] is F1+2, TAT, D-dimer. Briefly: Early phase II trials: biomarkers F1+2, TAT and D-dimer. In kind it is in vivo, human.
Description: as §3

The subject of data set [4] is bleeding events. The conditions noted are these: total knee arthroplasty patients; 5 mg to 60 mg oral once a day 11 to 14 days. The text has this:
The implementation of this clinical trial conformed to the ethical research guidelines of the Declaration of Helsinki and secured the maximal human rights, welfare, and safety of the test subjects.

Setting [5] is: NVAF patients, 30 mg, 45 mg, 60 mg oral once a day 12 weeks.

As to `CC(=O)CC(c1ccccc1)c1c(O)c2ccccc2oc1=O` (centres unmarked) [warfarin, warfarin potassium], in the data set with F1+2, TAT, D-dimer [1], the “levels of biomarkers F1+2, TAT and D-dimer” value was “decreased by anticoagulant therapy using warfarin”.

`CN1CCc2nc(C(=O)N[C@@H]3C[C@@H](C(=O)N(C)C)CC[C@@H]3NC(=O)C(=O)Nc3ccc(Cl)cn3)sc2C1.Cc1ccc(S(=O)(=O)O)cc1` [compound (1a), N^1-(5-chloropyridin-2-yl)-N^2-((1S,2R,4S)-4-[(dimethylamino)carbonyl]-2-{[(5-methyl-4,5,6,7-tetrahydrothiazolo[5,4-c]pyridin-2-yl)carbonyl]amino}cyclohexyl)ethanediamide p-toluenesulfonate monohydrate]: the “D-dimer (secondary fibrinolysis biomarker)” value with D-dimer (NVAF patients, compared with warfarin) is “comparable to that of warfarin”. Also, the “D-dimer (secondary fibrinolysis biomarker)” value in the data set with D-dimer (test subjects having no history of warfarin administration, compared with warfarin-administered patients) is listed as “comparable to that of warfarin-administered patients”. Moreover, in the data set on bleeding events [2] (NVAF patients that received compound (1a)), the “incidence of bleeding events in four groups divided by BW (60 kg) and Ccr (50)” value was “highest incidence of bleeding events was obtained in the group of (4) BW≦60 kg, Ccr≦50”. In the data set on bleeding events [2] (setting [5]), the “incidence of bleeding events (major, clinically relevant non-major, minor), dose response” value is on record as “increased as the dose of the compound (1a) got higher” and the “incidence of bleeding events compared with warfarin group” value was “no significant difference”. The “incidence of bleeding events, Ccr≦50 versus Ccr>50” value in the data set with bleeding events [2] (NVAF patients, 45 mg/kg or higher (so in the source)) is given as “higher in the group to which compound (1a) had been administered involving the test subjects having creatinine clearance (Ccr) of Ccr≦50”. Besides, the “incidence of bleeding events, BW≦60 kg versus BW>60 kg” value in the data set on bleeding events [2] (NVAF patients, dose of 45 mg/kg or higher (so in the source)) was “higher in the group to which compound (1a) had been administered involving the test subjects having a body weight (BW) of BW≦60 kg”. Moreover, the “levels of biomarkers F1+2, TAT and D-dimer” value with F1+2, TAT, D-dimer [3] is “reduce the levels of these biomarkers”. Moreover, in the data set on bleeding events [4], the “incidence of bleeding events compared with placebo group” value was “did not differ from that in the group to which the placebo had been administered” and the “number of bleeding events” value is given as “increased in a manner dependent on the dose”.

The record behind these values is patent US20130184308A1, “ACTIVATED BLOOD COAGULATION FACTOR X (FXa) INHIBITOR” (DAIICHI SANKYO COMPANY, LIMITED, priority 2008, published 2013).
